Converted amounts (≈) assume the structure as drawn. The source made the active and inactive calls. No cut-off for these calls is given here. Where only a bound is given, the exact number is not on record here.

By IC50 is commonly meant the concentration that gives 50% inhibition. By MIC is commonly meant the least concentration at which growth counts as inhibited.

The subject of series [1] is Plasmodium falciparum. The experiment in a line: Antiplasmodial activity against chloroquine-sensitive Plasmodium falciparum D6 after 72 hrs by LDH assay. Type of series: functional, organism-based.
For series [2], the system named is Plasmodium falciparum. Briefly: Antiplasmodial activity against chloroquine-resistant Plasmodium falciparum W2 after 72 hrs by LDH assay. It counts as functional, organism-based.
The subject of series [3] is Vero. Briefly: Cytotoxicity against african green monkey Vero cell after 48 hrs by Neutral Red dye. It counts as cell-based, Chlorocebus sabaeus.
In series [4] the test system is Staphylococcus aureus. The experiment in a line: Antimicrobial activity against Staphylococcus aureus ATCC 29213 by CLSI method. Type of series: functional, organism-based.
Series [5] has as its system Staphylococcus aureus. Briefly: Antimicrobial activity against methicillin-resistant Staphylococcus aureus ATCC 33591 by CLSI method. It counts as functional, organism-based.
Series [6] has as its system Candida albicans. The experiment in a line: Antimicrobial activity against Candida albicans ATCC 90028 at 20 ug/ml by CLSI method. Type of series: functional, organism-based.
For series [7], the system named is Aspergillus fumigatus. The experiment in a line: Antimicrobial activity against Aspergillus fumigatus ATCC 90906 at 20 ug/ml by CLSI method. Type of series: functional, organism-based.
For series [8], the system named is SK-MEL. The experiment in a line: Cytotoxicity against human SK-MEL cells at 10 ug/ml after 48 hrs by Neutral Red dye. Type of series: functional, cell-based.
The subject of series [9] is KB. Briefly: Cytotoxicity against human KB cells at 10 ug/ml after 48 hrs by Neutral Red dye. Type of series: functional, cell-based.
Series [10] has as its system BT-549. Briefly: Cytotoxicity against human BT549 cells at 10 ug/ml after 48 hrs by Neutral Red dye. Type of series: functional, cell-based.
Series [11] relates to SK-OV-3. Briefly: Cytotoxicity against human SKOV3 cells at 10 ug/ml after 48 hrs by Neutral Red dye. Type of series: functional, cell-based.
The nature of series [12]: Cytotoxicity against pig LLC-PK11 cells at 10 ug/ml after 48 hrs by Neutral Red dye. It counts as cell-based, Sus scrofa.
Series [13] concerns Vero. The experiment in a line: Cytotoxicity against african green monkey Vero cell at 10 ug/ml after 48 hrs by Neutral Red dye. It counts as cell-based, Chlorocebus sabaeus.
Series [14] relates to Candida albicans. Briefly: Antimicrobial activity against Candida albicans ATCC 90028 by CLSI method. Type of series: functional, organism-based.
Series [15] deals with Aspergillus fumigatus. The experiment in a line: Antimicrobial activity against Aspergillus fumigatus ATCC 90906 by CLSI method. It counts as functional, organism-based.
Series [16] relates to KB. Briefly: Cytotoxicity against human KB cells after 48 hrs by Neutral Red dye. Type of series: functional, cell-based.
Series [17] concerns BT-549. Briefly: Cytotoxicity against human BT549 cells after 48 hrs by Neutral Red dye. Type of series: functional, cell-based. The settings on record: BT-549, 48 h.
In series [18] the test system is SK-OV-3. The experiment in a line: Cytotoxicity against human SKOV3 cells after 48 hrs by Neutral Red dye. It counts as functional, cell-based. As to conditions: SK-OV-3, 48 h.
A short description of series [19]: Selectivity index, ratio of IC50 for african green monkey (Cercopithecus aethiops) Vero cells to IC50 for chloroquine-sensitive Plasmodium falciparum D6. It counts as toxicity, cell-based. As to conditions: read-out: Ratio IC50.
The nature of series [20]: Selectivity index, ratio of IC50 for african green monkey (Cercopithecus aethiops) Vero cells to IC50 for chloroquine-resistant Plasmodium falciparum W2. Type of series: toxicity, cell-based. The settings on record: read-out: Ratio IC50.
Series [21] has as its system Staphylococcus aureus. Briefly: Antimicrobial activity against Staphylococcus aureus ATCC 29213 at 20 ug/ml by CLSI method. It counts as functional, organism-based.
Series [22] relates to Staphylococcus aureus. The experiment in a line: Antimicrobial activity against methicillin-resistant Staphylococcus aureus ATCC 33591 at 20 ug/ml by CLSI method. It counts as functional, organism-based.
For series [23], the system named is SK-MEL. Briefly: Cytotoxicity against human SK-MEL cells after 48 hrs by Neutral Red dye. Type of series: functional, cell-based.
Series [24] can be described thus: Cytotoxicity against pig LLC-PK11 cells after 48 hrs by Neutral Red dye. Type of series: cell-based. The settings on record: Sus scrofa, LLC-PK11, 48 h.
Where [25] appears, read: Chlorocebus sabaeus, Vero, 48 h, read-out: IC50.

For the compound `CC[C@@H](C)[C@H]1O[C@@H](c2c(O)c(-c3ccccc3)cn(OC)c2=O)[C@H](C)C[C@@H]1C`, the half-inhibitory concentration (IC50) entry is “Not Active” in the series on Plasmodium falciparum [1]; “Not Active” with Plasmodium falciparum [2]; “Non-toxic” in the series on Vero [3] (vero); 2.79 µg/mL (≈ 7.24 µM) with Staphylococcus aureus [4] (Staphylococcus aureus, ATCC 29213, read-out: IC50); 2.99 µg/mL (≈ 7.76 µM) in the series on Staphylococcus aureus [5]; “Not Active” in the series on Candida albicans [6]. Further, the 50% inhibitory concentration (IC50) entry (in the series on Aspergillus fumigatus [7]; in the series on SK-MEL [8]; in the series with KB [9]; in the series on BT-549 [10]; in the series on SK-OV-3 [11]; in [12]) was “Not Active” in each case. The 50% inhibitory concentration (IC50) entry in the series on Vero [13] is “Not Active”. The MIC in the series with Staphylococcus aureus [4] (Staphylococcus aureus, ATCC 29213) turned out to be 5 µg/mL (≈ 13 µM); against Staphylococcus aureus [5] it was 5 µg/mL (≈ 13 µM). Besides, the MIC entry with Candida albicans [6] and in the series on Aspergillus fumigatus [7] was “inactive” throughout.
As for `COn1cc(-c2ccccc2)c(O)c([C@@H]2O[C@H]([C@H](C)CCO)[C@@H](C)C[C@H]2C)c1=O`, the IC50 entry is “Not Active” in the series on Plasmodium falciparum [1], “Not Active” with Plasmodium falciparum [2] and “Non-toxic” in the series with Vero [3] (vero).
`COn1cc(-c2ccccc2)c(O)c([C@@H]2O[C@H]([C@H](C)CCOC(C)=O)[C@@H](C)C[C@H]2C)c1=O`: the concentration for half-maximal inhibition (IC50) result in the series with Plasmodium falciparum [1] is reported as “Not Active”; in the series with Plasmodium falciparum [2] it was “Not Active”; with Vero [3] (vero), “Non-toxic”.
Take `C[C@@H]1[C@H](O)[C@@H](C)/C=C/C=C/C=C/C=C/C=C/C=C/C=C/[C@H](O[C@@H]2O[C@H](C)[C@@H](O)[C@H](N)[C@@H]2O)C[C@@H]2O[C@](O)(C[C@@H](O)C[C@@H](O)[C@H](O)CC[C@@H](O)C[C@@H](O)CC(=O)O[C@H]1C)C[C@H](O)[C@H]2C(=O)O` [AMPHOTERICIN B]: in the series with Candida albicans [14], the IC50 was 0.42 µg/mL (≈ 0.455 µM) and the MIC is 2.5 µg/mL (≈ 2.71 µM). In addition, in the series with Aspergillus fumigatus [15], the IC50 worked out at 1.16 µg/mL (≈ 1.26 µM) and inhibition of growth (MIC) required 2.5 µg/mL (≈ 2.71 µM).
Take `C[C@@H]1CC[C@H]2[C@@H](C)C(=O)O[C@@H]3O[C@@]4(C)CC[C@@H]1[C@]32OO4` [ARTEMISININ]: the IC50 entry in the series on Vero [3] (vero) is recorded as “Non-toxic”.
Same read-out and setting: in the case of `CCN(CC)CCCC(C)Nc1ccnc2cc(Cl)ccc12` (centres undefined) [CHLOROQUINE] it was “Non-toxic”.
Regarding `COc1cccc2c1C(=O)c1c(O)c3c(c(O)c1C2=O)C[C@@](O)(C(=O)CO)C[C@@H]3O[C@H]1C[C@H](N)[C@H](O)[C@H](C)O1` [DOXORUBICIN], the half-maximal inhibitory concentration (IC50) is > 5 µg/mL with Vero [3] (setting [25]), 1.35 µg/mL (≈ 2.48 µM) in the series with KB [16], 0.8 µg/mL (≈ 1.47 µM) in the series with BT-549 [17] and 1.2 µg/mL (≈ 2.21 µM) in the series with SK-OV-3 [18].
Take `CC[C@@H](C)[C@H]1O[C@@H](c2c(O)c(-c3ccccc3)cn(O)c2=O)[C@H](C)C[C@@H]1C` [SEPTORIAMYCIN A]: the half-maximal inhibitory concentration (IC50) was 1.3 µg/mL (≈ 3.5 µM) in the series on Vero [3] (setting [25]); 12.1 µg/mL (≈ 32.5 µM) in the series on Candida albicans [14]; 8.76 µg/mL (≈ 23.6 µM) with Aspergillus fumigatus [15]; “Not Active” with Staphylococcus aureus [4]; “Not Active” with Staphylococcus aureus [21]; “Not Active” in the series on Staphylococcus aureus [22]. In addition, the IC50 is 1.5 µg/mL (≈ 4.04 µM) in the series on SK-MEL [23]; 5 µg/mL (≈ 13.5 µM) in the series on KB [16]; 1.65 µg/mL (≈ 4.44 µM) with BT-549 [17]; 2.6 µg/mL (≈ 7 µM) with SK-OV-3 [18]; 1.65 µg/mL (≈ 4.44 µM) in series [24]. For the same compound, the values for the selectivity ratio in [19] and in series [20] were 3.9 and 6.5, respectively. Moreover, the MIC entry in the series on Staphylococcus aureus [4], in the series with Staphylococcus aureus [21] and with Staphylococcus aureus [22] was “inactive” each time.

The values above are taken from ChEMBL document CHEMBL1177737, “Bioactive 1,4-dihydroxy-5-phenyl-2-pyridinone alkaloids from Septoria pistaciarum” (J Nat Prod, 2010).
